Numbered stars: 1 amine (or outer) side, 2 acyl side, 3 side chain; on linkers, the order of the positions; unused ones are H or OH. Bridge positions count the residues as written; N and C are the ends. Square brackets hold non-standard residues; d marks the D form. Peptide text beside a SMILES is read from it. X21 = CN(C)P(=O)(Oc1ccc(C[C@H](N[*:1])C(=O)[*:2])cc1)N(C)C; Phe(4-COOH) = N[C@@H](Cc1ccc(C(=O)O)cc1)C(=O)O; Bip = N[C@@H](Cc1ccc(-c2ccccc2)cc1)C(=O)O; mTyr = N[C@@H](Cc1cccc(O)c1)C(=O)O; 3Pal = N[C@@H](Cc1cccnc1)C(=O)O; NMeA = CN[C@@H](C)C(=O)O; dAbu = CC[C@@H](N)C(=O)O
Each compound was assayed against T1, PE-labeled human PD-L1-Ig binding to Jurkat cell line over-expressing human PD-1 (Jurkat-PD-1) (Homo sapiens, UniProt Q15116) (assay: Jurkat-PD-1 Cell Binding High-Content Screening Assay (CBA): Method 1). Settings: Jurkat HPDL1 PD1 IC50 (uM) (Method 1), Jurkat-hPD-1 cells, PE-labeled PD-L1-Ig 20 nM final.
T1 construct: expressed in transfected cells; host or cells: Jurkat
T1 sequence (Q15116 25-288): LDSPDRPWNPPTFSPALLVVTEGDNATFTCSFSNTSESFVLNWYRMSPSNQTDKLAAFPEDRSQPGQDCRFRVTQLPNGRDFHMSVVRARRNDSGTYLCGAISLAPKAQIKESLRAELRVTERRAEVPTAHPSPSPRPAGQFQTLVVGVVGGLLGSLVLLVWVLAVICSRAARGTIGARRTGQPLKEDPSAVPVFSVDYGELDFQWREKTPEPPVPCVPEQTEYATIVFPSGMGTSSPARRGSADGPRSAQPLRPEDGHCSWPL

SMILES | IC50 [µM]
CC(C)C[C@@H]1NC(=O)[C@H](Cc2c[nH]c3ccccc23)NC(=O)[C@H](CC(=O)O)NC(=O)[C@H](Cc2ccc(OP(=O)(N(C)C)N(C)C)cc2)NC(=O)[C@H](Cc2ccccc2)NC(=O)CSC[C@@H](C(=O)N[C@@H](C)C(N)=O)NC(=O)[C@H](CO)NC(=O)[C@H](C(C)C)NC(=O)[C@H](CC(C)C)NC(=O)[C@H](CC(N)=O)NC(=O)[C@@H](C)NC(=O)[C@H](C)N(C)C(=O)[C@H](C(C)C)NC(=O)[C@H](Cc2ccc(-c3ccccc3)cc2)NC1=O [Compound 1764] ({CH2CO}-F[X21]DWL[Bip]V[NMeA][dA]NLVSCA-NH2; thioether N-14) | 0.04

Same assay, conditions: Jurkat-hPD-1 cells, PE-labeled PD-L1-Ig 20 nM final; read-out: Jurkat HPDL1 PD1 IC50 (uM) (Method 1)

IC50 [µM] | SMILES
0.03 | CC(C)C[C@@H]1NC(=O)[C@H](Cc2c[nH]c3ccccc23)NC(=O)[C@H](CC(=O)O)NC(=O)[C@H](Cc2ccc(C(=O)O)cc2)NC(=O)[C@H](Cc2cccnc2)NC(=O)CSC[C@@H](C(=O)N[C@@H](C)C(N)=O)NC(=O)[C@H](CO)NC(=O)[C@H](C(C)C)NC(=O)[C@H](CC(C)C)NC(=O)[C@H](CCCCN)NC(=O)[C@@H](C)NC(=O)[C@H](C)N(C)C(=O)[C@H](CCC(=O)O)NC(=O)[C@H](Cc2ccc(-c3ccccc3)cc2)NC1=O [Compound 1761] ({CH2CO}-[3Pal][Phe(4-COOH)]DWL[Bip]E[NMeA][dA]KLVSCA-NH2; thioether N-14)
0.04 | CC(C)C[C@@H]1NC(=O)[C@H](Cc2c[nH]c3ccccc23)NC(=O)[C@H](CC(=O)O)NC(=O)[C@H](Cc2ccc(O)cc2)NC(=O)[C@H](CC(N)=O)NC(=O)CSC[C@@H](C(=O)N[C@@H](C)C(N)=O)NC(=O)[C@H](CO)NC(=O)[C@H](C(C)C)NC(=O)[C@H](CC(C)C)NC(=O)[C@H](CC(N)=O)NC(=O)[C@@H](C)NC(=O)[C@H](C)N(C)C(=O)[C@H](C(C)C)NC(=O)[C@H](Cc2ccc(-c3ccccc3)cc2)NC1=O [Compound 1762] ({CH2CO}-NYDWL[Bip]V[NMeA][dA]NLVSCA-NH2; thioether N-14)
0.04 | CC[C@H]1NC(=O)[C@H](C)N(C)C(=O)[C@H](C(C)C)NC(=O)[C@H](Cc2ccc(-c3ccccc3)cc2)NC(=O)[C@H](CC(C)C)NC(=O)[C@H](Cc2c[nH]c3ccccc23)NC(=O)[C@H](CC(=O)O)NC(=O)[C@H](Cc2ccc(O)cc2)NC(=O)[C@H](Cc2ccccc2)NC(=O)CSC[C@@H](C(=O)N[C@@H](C)C(N)=O)NC(=O)[C@H](CO)NC(=O)[C@H](C(C)C)NC(=O)[C@H](CC(C)C)NC(=O)[C@H](CC(N)=O)NC1=O [Compound 1763] ({CH2CO}-FYDWL[Bip]V[NMeA][dAbu]NLVSCA-NH2; thioether N-14)
0.04 | CC(C)C[C@@H]1NC(=O)[C@H](Cc2c[nH]c3ccccc23)NC(=O)[C@H](CC(=O)O)NC(=O)[C@H](Cc2cccc(O)c2)NC(=O)[C@H](Cc2ccccc2)NC(=O)CSC[C@@H](C(=O)N[C@@H](C)C(N)=O)NC(=O)[C@H](CO)NC(=O)[C@H](C(C)C)NC(=O)[C@H](CC(C)C)NC(=O)[C@H](CC(N)=O)NC(=O)[C@@H](C)NC(=O)[C@H](C)N(C)C(=O)[C@H](C(C)C)NC(=O)[C@H](Cc2ccc(-c3ccccc3)cc2)NC1=O [Compound 1765] ({CH2CO}-F[mTyr]DWL[Bip]V[NMeA][dA]NLVSCA-NH2; thioether N-14)
0.04 | CC(C)C[C@@H]1NC(=O)[C@H](Cc2c[nH]c3ccccc23)NC(=O)[C@H](CC(=O)O)NC(=O)[C@H](Cc2ccc(O)cc2)NC(=O)[C@H](Cc2ccccc2)NC(=O)CSC[C@@H](C(=O)N[C@@H](C)C(N)=O)NC(=O)[C@H]([C@@H](C)O)NC(=O)[C@H](CCCCN)NC(=O)[C@H](CC(C)C)NC(=O)[C@H](CC(N)=O)NC(=O)[C@@H](C)NC(=O)[C@H](C)N(C)C(=O)[C@H](C(C)C)NC(=O)[C@H](Cc2ccc(-c3ccccc3)cc2)NC1=O [Compound 1766] ({CH2CO}-FYDWL[Bip]V[NMeA][dA]NLKTCA-NH2; thioether N-14)
